Results on one compound are retold here after BindingDB's records for patent US9556181 (Bayer Pharma Aktiengesellschaft, 2017).

By IC50 is commonly meant the concentration at which inhibition is half-maximal. Higher therefore signals a need for much substance.

For the assay, the target named is T1, MAP kinase-interacting serine/threonine-protein kinase 1 [T344D] (Homo sapiens, UniProt Q9BUB5, T344D).
T1 construct: gene MKNK1
The experiment in a line: MKNK1 Kinase High ATP Assay. The following applies: pH 7.5. The text has this: TBDA recombinant fusion protein of Glutathione-S-Transferase (GST, N-terminally) and human full-length MKNK1 (amino acids 1-424 and T344D of accession number BAA 19885.1), expressed in insect cells using baculovirus expression system and purified via glutathione sepharose affinity chromatography, was purchased from Carna Biosciences (product no 02-145) and used as enzyme. As substrate for the kinase reaction the biotinylated peptide biotin-Ahx-IKKRKLTRRKSLKG (C-terminus in amide form) was used, which can be purchased e.g. from the company Biosyntan (Berlin-Buch, Germany).For the assay 50 nL of a 100 fold concentrated solution of the test compound in DMSO was pipetted into a black low volume 384 well microtiter plate (Greiner Bio-One, Frickenhausen, Germany), 2 μL of a solution of MKNK1 in aqueous assay buffer [50 mM HEPES pH 7.5, 5 mM MgCl2, 1.0 mM dithiothreitol, 0.005% (v/v) Nonidet-P40 (Sigma)] was added and the mixture was incubated for 15 min at 22° C. to allow pre-binding of the test compounds to the enzyme before the start of the kinase reaction. Then the kinase reaction was started by the addition of 3 μL of a solution of adenosine-tri-phosphate (ATP, 3.3 mM=>final conc. in the 5 μL assay volume is 2 mM) and substrate (0.1 μM=>final conc. in the 5 μL assay volume is 0.06 μM) in assay buffer and the resulting mixture was incubated for a reaction time of 30 min at 22° C. […]

Structures are written as SMILES.

T1 sequence (Q9BUB5 whole entry, looked up, stated change not applied): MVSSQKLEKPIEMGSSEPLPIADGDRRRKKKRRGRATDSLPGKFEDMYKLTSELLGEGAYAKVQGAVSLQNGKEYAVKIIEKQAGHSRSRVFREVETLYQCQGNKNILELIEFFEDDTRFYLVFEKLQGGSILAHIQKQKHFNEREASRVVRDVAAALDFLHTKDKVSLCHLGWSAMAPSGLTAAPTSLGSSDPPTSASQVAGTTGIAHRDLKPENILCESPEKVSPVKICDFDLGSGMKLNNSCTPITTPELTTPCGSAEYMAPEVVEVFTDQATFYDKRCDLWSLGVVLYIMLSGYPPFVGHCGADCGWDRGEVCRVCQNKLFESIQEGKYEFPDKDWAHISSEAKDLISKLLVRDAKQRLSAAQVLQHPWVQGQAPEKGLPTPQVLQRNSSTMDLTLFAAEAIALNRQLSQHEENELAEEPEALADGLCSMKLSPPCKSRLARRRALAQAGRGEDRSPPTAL

`COc1cc2[nH]ncc2cc1Nc1ncnc2[nH]ncc12` [US9556181, 2] gave a half-inhibitory concentration (IC50) of 0.049 µM.
